Measurements as given in ChEMBL document CHEMBL4706559, “New indolylarylsulfone non-nucleoside reverse transcriptase inhibitors show low nanomolar inhibition of single and double HIV-1 mutant strains” (Eur J Med Chem, 2020).

What was measured:
[1] = Inhibition of RNA-dependent DNA polymerase activity of recombinant HIV-1 p66/p51 reverse transcriptase K103N/Y181C mutant assessed as inhibition of [3H]dTTP incorporation using poly(rA)/oligo(dT) as templates incubated for 15 mins by MicroBeta scintillation counting method; set-up: species or system Human immunodeficiency virus 1
[2] = test system: Human immunodeficiency virus 1; assay: Inhibition of HIV1 p66/p51 reverse transcriptase K103N/Y181C double mutant assessed as apparent Vmax at 300 nM using fixed concentration of poly(rA)/oligo(dT) as templates in presence of 2 to 100 uM of [3H]dTTP by Michaelis-Menten analysis (reference value: 9.6 +/- 0.4%)
[3] = biological target: Human immunodeficiency virus type 1 reverse transcriptase (Human immunodeficiency virus 1) (UniProt Q72547); assay: Binding affinity to wild type HIV-1 p66/p51 reverse transcriptase/nucleic acid binary complex assessed as association constant using poly(rA)/oligo(dT) as templates in presence of [3H]dTTP
[4] = biological target: Human immunodeficiency virus type 1 reverse transcriptase (Human immunodeficiency virus 1) (UniProt Q72547); assay: Ratio of Koff of wild type HIV-1 p66/p51 reverse transcriptase/nucleic acid binary complex to Koff of wild type HIV-1 p66/p51 reverse transcriptase/nucleic acid/dTTP ternary complex using poly(rA)/oligo(dT) as templates in presence of [3H]dTTP
[5] = test system: Human immunodeficiency virus 1; assay: Inhibition of HIV1 p66/p51 reverse transcriptase K103N/Y181C double mutant assessed as apparent Vmax at 75 nM using 10 to 500 uM poly(rA)/oligo(dT) as templates in presence of fixed concentration of [3H]dTTP by Michaelis-Menten analysis (reference value: 12 +/- 1%)
[6] = test system: Human immunodeficiency virus 1; assay: Inhibition of HIV1 p66/p51 reverse transcriptase K103N/Y181C double mutant assessed as apparent Km of substrate at 150 nM using […] as templates in presence of fixed concentration of [3H]dTTP by Michaelis-Menten analysis (reference value: 106+/- 16 nM)
[7] = test system: Human immunodeficiency virus 1; assay: Inhibition of HIV1 p66/p51 reverse transcriptase K103N/Y181C double mutant assessed as apparent Km of substrate at 75 nM using fixed concentration of poly(rA)/oligo(dT) as templates in presence of 2 to 100 uM of [3H]dTTP by Michaelis-Menten analysis (reference value: 9.2 +/- 1.4 uM)
[8] = biological target: Human immunodeficiency virus type 1 reverse transcriptase (Human immunodeficiency virus 1) (UniProt Q72547); assay: Inhibition of wild type HIV1 p66/p51 reverse transcriptase assessed as apparent Vmax at 37.5 nM using 10 to 500 uM poly(rA)/oligo(dT) as templates in presence of fixed concentration of [3H]dTTP by Michaelis-Menten analysis (reference value: 10 +/- 0.5%)
[9] = test system: Human immunodeficiency virus 1; assay: Inhibition of HIV1 p66/p51 reverse transcriptase K103N/Y181C double mutant assessed as apparent Km of substrate at 75 nM using […] as templates in presence of fixed concentration of [3H]dTTP by Michaelis-Menten analysis (reference value: 106+/- 16 nM)
[10] = biological target: Human immunodeficiency virus type 1 reverse transcriptase (Human immunodeficiency virus 1) (UniProt Q72547); assay: Inhibition of wild type HIV1 p66/p51 reverse transcriptase assessed as apparent Vmax at 90 nM using fixed concentration of poly(rA)/oligo(dT) as templates in presence of 2 to 100 uM of [3H]dTTP by Michaelis-Menten analysis (reference value: 9.7 +/- 12%)
[11] = biological target: Human immunodeficiency virus type 1 reverse transcriptase (Human immunodeficiency virus 1, UniProt Q72547); assay: Binding affinity to wild type HIV-1 p66/p51 reverse transcriptase/nucleic acid/dTTP ternary complex using poly(rA)/oligo(dT) as templates in presence of [3H]dTTP

## Cc1cc(C)cc(S(=O)(=O)c2c(C(=O)NCc3ccccc3O)[nH]c3ccc(Cl)cc23)c1
[1]
  IC50: 0.076 µM
[2]
  Vmax(app): 1.5%
[3]
  K: 96 10^-5/nM/s
[4]
  Ratio: 8
[5]
  Vmax(app): 7.7%
[6]
  Km: 0.125 µM
[7]
  Km: 5.8 µM
[8]
  Vmax(app): 4.9%
[9]
  Km: 0.108 µM
[10]
  Vmax(app): 2.9%
[11]
  Ki: 0.028 µM
